Patent KR20210056931A, “피리메타민을 유효성분으로 포함하는 면역 관련 질환의 치료 또는 예방용 약학 조성물” (priority 2019, dated 2021)
Where “and” joins values, the source holds several entries; their conditions need not be identical. Identical values can stand only once.

Assays:
TNF-α [1] = test: Plasma TNF-α (ELISA), Experiment 6-5; assay type: in vivo, mouse; settings: for Plasma TNF-α: Day 14
[2] = tested on: rheumatoid arthritis model, DBA-1J Mice [류마티스 관절염 모델]; test: Paw edema in rheumatoid arthritis animal model, dose regimen study, Experiment 6; assay type: in vivo, mouse; settings: for Paw edema, HL, mean / Paw edema, HR, mean / Paw edema, HL, individual animal / Paw edema, HR, individual animal: Day 14; for Paw edema, HL, individual animal / Paw edema, HR, individual animal: listed as Py
[3] = tested on: rheumatoid arthritis model, DBA-1J Mice [류마티스 관절염 모델]; test: Paw edema in rheumatoid arthritis animal model, Experiment 5; assay type: in vivo, mouse
TNF-α [4] = test: TNF-α expression inhibition in Raw264.7, comparison with tofacitinib, Experiment 2-2; assay type: cell-based; settings: for TNF-α expression: 6 h pretreatment, LPS 10 ng/mL 16 h
[5] = tested on: rheumatoid arthritis model, DBA-1J Mice [류마티스 관절염 모델]; test: Histopathological examination in rheumatoid arthritis animal model, Experiment 5; assay type: in vivo, mouse; settings: Day 14
[6] = tested on: rheumatoid arthritis model, DBA-1J Mice [류마티스 관절염 모델]; test: Arthritis score in rheumatoid arthritis animal model, Experiment 5; assay type: in vivo, mouse

`CCc1nc(N)nc(N)c1-c1ccc(Cl)cc1` [피리메타민, Pyrimethamine] was tested, and the “Plasma TNF-α” value (TNF-α [1]; G7: Py 1 mg/kg/day QD IP) was 879.4 pg/mL, the “Plasma TNF-α” value (TNF-α [1]; G8: Py 1 mg/kg/day BID PO) was 867.2 pg/mL and the “Plasma TNF-α” value (TNF-α [1]; G9: Py 1 mg/kg/day QD PO) was 863.5 pg/mL. For the same compound, the “Plasma TNF-α” value (TNF-α [1]; G10: Py 3 mg/kg/day BID PO) was 818.8 pg/mL, the “Plasma TNF-α” value (TNF-α [1]; G11: Py 5 mg/kg QD PO) was 763.7 pg/mL and the “Plasma TNF-α” value (TNF-α [1]; G12: Py 15 mg/kg/day QD PO) was 728.0 pg/mL. For the same compound, the “Plasma TNF-α (in words)” value (TNF-α [1]; pyrimethamine oral groups) was “농도 의존적으로 혈장 TNF-α 수치가 감소”, the “Paw edema, HL, mean” value ([2]; G7: Py 1 mg/kg/day QD IP) was 0.17 mL and the “Paw edema, HR, mean” value ([2]; G7: Py 1 mg/kg/day QD IP) was 0.17 mL. For the same compound, the “Paw edema, HL, individual animal” value ([2]; G7: Py 1 mg/kg/day QD IP) was 0.18 mL and 0.19 mL and 0.17 mL and 0.12 mL and 0.14 mL, the “Paw edema, HR, individual animal” value ([2]; G7: Py 1 mg/kg/day QD IP) was 0.17 mL and 0.18 mL and 0.14 mL and 0.19 mL and the “Paw edema, HL, mean” value ([2]; G8: Py 1 mg/kg/day BID PO) was 0.16 mL. The “Paw edema, HR, mean” value ([2]; G8: Py 1 mg/kg/day BID PO) was 0.17 mL, the “Paw edema, HL, individual animal” value ([2]; G8: Py 1 mg/kg/day BID PO) was 0.14 mL and 0.13 mL and 0.17 mL and 0.19 mL and 0.20 mL and the “Paw edema, HR, individual animal” value ([2]; G8: Py 1 mg/kg/day BID PO) was 0.18 mL and 0.19 mL and 0.17 mL and 0.14 mL. The “Paw edema, HL, mean” value ([2]; G9: Py 1 mg/kg/day QD PO) was 0.17 mL, the “Paw edema, HR, mean” value ([2]; G9: Py 1 mg/kg/day QD PO) was 0.18 mL and the “Paw edema, HL, individual animal” value ([2]; G9: Py 1 mg/kg/day QD PO) was 0.13 mL and 0.20 mL and 0.17 mL and 0.19 mL. The “Paw edema, HR, individual animal” value ([2]; G9: Py 1 mg/kg/day QD PO) was 0.19 mL and 0.16 mL and 0.17 mL, the “Paw edema, HL, mean” value ([2]; G10: Py 3 mg/kg/day BID PO) was 0.15 mL and the “Paw edema, HR, mean” value ([2]; G10: Py 3 mg/kg/day BID PO) was 0.16 mL. The “Paw edema, HL, individual animal” value ([2]; G10: Py 3 mg/kg/day BID PO) was 0.16 mL and 0.20 mL and 0.13 mL and 0.15 mL, the “Paw edema, HR, individual animal” value ([2]; G10: Py 3 mg/kg/day BID PO) was 0.17 mL and 0.14 mL and 0.16 mL and 0.15 mL and 0.19 mL and the “Paw edema, HL, mean” value ([2]; G11: Py 5 mg/kg QD PO) was 0.18 mL. For the same compound, the “Paw edema, HR, mean” value ([2]; G11: Py 5 mg/kg QD PO) was 0.18 mL, the “Paw edema, HL, individual animal” value ([2]; G11: Py 5 mg/kg QD PO) was 0.16 mL and 0.20 mL and 0.19 mL and 0.17 mL and 0.14 mL and the “Paw edema, HR, individual animal” value ([2]; G11: Py 5 mg/kg QD PO) was 0.19 mL and 0.20 mL and 0.16 mL. The “Paw edema, HL, mean” value ([2]; G12: Py 15 mg/kg/day QD PO) was 0.14 mL, the “Paw edema, HR, mean” value ([2]; G12: Py 15 mg/kg/day QD PO) was 0.14 mL and the “Paw edema, HL, individual animal” value ([2]; G12: Py 15 mg/kg/day QD PO) was 0.19 mL and 0.13 mL and 0.11 mL and 0.14 mL. For the same compound, the “Paw edema, HR, individual animal” value ([2]; G12: Py 15 mg/kg/day QD PO) was 0.11 mL and 0.16 mL and 0.14 mL and 0.13 mL and 0.15 mL, the “Paw edema (in words)” value ([2]; Py 15 mg/kg/day QD PO) was “피리메타민 15 mg/kg/day QD 경구투여군에서만 개선” and the “Paw edema, LEFT” value ([3]; Day 0, G4: Py 10 mg/kg/day PO) was 0.11 ± 0.01 mL. For the same compound, the “Paw edema, RIGHT” value ([3]; Day 0, G4: Py 10 mg/kg/day PO) was 0.10 ± 0.00 mL, the “Paw edema, LEFT” value ([3]; Day 0, G5: Py 30 mg/kg/day PO) was 0.11 ± 0.02 mL and the “Paw edema, RIGHT” value ([3]; Day 0, G5: Py 30 mg/kg/day PO) was 0.10 ± 0.01 mL. For the same compound, the “Paw edema, LEFT” value ([3]; Day 14, G4: Py 10 mg/kg/day PO) was 0.15 ± 0.03 mL, the “Paw edema, RIGHT” value ([3]; Day 14, G4: Py 10 mg/kg/day PO) was 0.12 ± 0.01 mL and the “Paw edema, LEFT” value ([3]; Day 14, G5: Py 30 mg/kg/day PO) was 0.11 ± 0.03 mL. The “Paw edema, RIGHT” value ([3]; Day 14, G5: Py 30 mg/kg/day PO) was 0.11 ± 0.02 mL, the TNF-α expression (TNF-α [4]; PYR 50 ng/mL) was 185.3 pg/mL and the TNF-α expression (TNF-α [4]; PYR 100 ng/mL) was 53.3 pg/mL. The “TNF-α expression compared with tofacitinib” value (TNF-α [4]; Raw264.7, LPS 10 ng/ml 16 h) was “토파시티닙과 달리 TNF-α의 발현량을 직접적으로 억제”, the Bone destruction ([5]; G4: Py 10 mg/kg/day PO) was 0.9±0.9 and the Cartilage damage ([5]; G4: Py 10 mg/kg/day PO) was 1.3±1.0. For the same compound, the “Histopathological examination, total” value ([5]; G4: Py 10 mg/kg/day PO) was 3.6±2.7, the Synovium proliferation ([5]; G4: Py 10 mg/kg/day PO) was 1.4±1.1 and the Bone destruction ([5]; G5: Py 30 mg/kg/day PO) was 0.4±0.8. The Cartilage damage ([5]; G5: Py 30 mg/kg/day PO) was 0.3±0.5, the “Histopathological examination, total” value ([5]; G5: Py 30 mg/kg/day PO) was 1.1±1.5 and the Synovium proliferation ([5]; G5: Py 30 mg/kg/day PO) was 0.4±0.8. For the same compound, the “Efficacy by histopathology compared with methotrexate (in words)” value ([5]; Py 10 and 30 mg/kg/day PO) was “메토트렉세이트와 비교할 때에도 보다 우수한 효과”, the “Therapeutic efficacy by histopathology (in words)” value ([5]; Py 10 and 30 mg/kg/day PO) was “농도 의존적으로 치료 효능을 보였으며” and the Arthritis score ([6]; Day 0, G4: Py 10 mg/kg/day PO) was 2.3±1.6 Total score. For the same compound, the Arthritis score ([6]; Day 0, G5: Py 30 mg/kg/day PO) was 2.3±1.4 Total score, the Arthritis score ([6]; Day 2, G4: Py 10 mg/kg/day PO) was 4.0±1.6 Total score and the Arthritis score ([6]; Day 2, G5: Py 30 mg/kg/day PO) was 2.7±1.8 Total score. The Arthritis score ([6]; Day 4, G4: Py 10 mg/kg/day PO) was 4.6±1.8 Total score, the Arthritis score ([6]; Day 4, G5: Py 30 mg/kg/day PO) was 4.0±2.7 Total score and the Arthritis score ([6]; Day 7, G4: Py 10 mg/kg/day PO) was 5.4±2.4 Total score. For the same compound, the Arthritis score ([6]; Day 7, G5: Py 30 mg/kg/day PO) was 4.0±2.7 Total score, the Arthritis score ([6]; Day 9, G4: Py 10 mg/kg/day PO) was 6.1±2.5 Total score and the Arthritis score ([6]; Day 9, G5: Py 30 mg/kg/day PO) was 5.3±1.6 Total score. The Arthritis score ([6]; Day 11, G4: Py 10 mg/kg/day PO) was 6.7±2.1 Total score, the Arthritis score ([6]; Day 11, G5: Py 30 mg/kg/day PO) was 5.4±1.5 Total score and the Arthritis score ([6]; Day 14, G4: Py 10 mg/kg/day PO) was 7.3±2.1 Total score. For the same compound, the Arthritis score ([6]; Day 14, G5: Py 30 mg/kg/day PO) was 5.6±1.4 Total score, the “Arthritis score (in words)” value ([6]; pyrimethamine groups, 10 and 30 mg/kg/day PO) was “관절염 지수가 현저하게 감소” and the “Arthritis score compared with methotrexate (in words)” value ([6]; pyrimethamine high dose (30 mg/kg/day) PO) was “메토트렉세이트 투여군에 비해 관절염 지수가 현저하게 낮은”.
